{"source": "patent US20100041089A1", "about": "“IMPROVED METHOD FOR DETECTING CHEMICAL […]” (priority 2006, published 2010)", "test_system": "yeast genes (expressed mRNA)", "test": "DNA chip measurement of expressed mRNA of yeast genes after culture with a toxic chemical substance", "type": "cell-based, Saccharomyces cerevisiae S288C", "conditions": "for level of expressed mRNA in the presence of chemical substance / level in the absence of chemical substance: cultured two hours with the chemical substance; for The level of expressed mRNA in the presence of chemical substance/The level of expressed mRNA in the absence of chemical substance: cultured two hours with substance", "outline": "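Fluorescence ratio, treated over untreated, read by chip scanner; ratio of two or more counted significant. Cells: S288C yeast, YPD, 25° C, chemical added at log phase for 2 h at growth-inhibiting, sublethal level. Cy3/Cy5-labeled cDNA from oligo-dT-purified mRNA.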"}
{"substance": "Na2As [(1)]", "values": [{"measurement": "level of expressed mRNA in the presence of chemical substance / level in the absence of chemical substance", "setting": "yeast gene YNL058C", "result": 2.0}, {"measurement": "level of expressed mRNA in the presence of chemical substance / level in the absence of chemical substance", "setting": "yeast gene YNL063W", "result": 0.9}, {"measurement": "The level of expressed mRNA in the presence of chemical substance/The level of expressed mRNA in the absence of chemical substance", "setting": "yeast gene YNL074C", "result": 0.9}, {"measurement": "The level of expressed mRNA in the presence of chemical substance/The level of expressed mRNA in the absence of chemical substance", "setting": "yeast gene YNL092W", "result": 1.3}, {"measurement": "The level of expressed mRNA in the presence of chemical substance/The level of expressed mRNA in the absence of chemical substance", "setting": "yeast gene YNL115C", "result": 0.7}, {"measurement": "The level of expressed mRNA in the presence of chemical substance/The level of expressed mRNA in the absence of chemical substance", "setting": "yeast gene YNL156C", "result": 1.1}, {"measurement": "level of expressed mRNA in the presence of chemical substance / level in the absence of chemical substance", "setting": "yeast gene YNL176C", "result": 1.1}, {"measurement": "level of expressed mRNA in the presence of chemical substance / level in the absence of chemical substance", "setting": "yeast gene YNL194C", "result": 1.6}, {"measurement": "level of expressed mRNA in the presence of chemical substance / level in the absence of chemical substance", "setting": "yeast gene YNL200C", "result": 1.0}, {"measurement": "The level of expressed mRNA in the presence of chemical substance/The level of expressed mRNA in the absence of chemical substance", "setting": "yeast gene YNL234W", "result": 1.1}, {"measurement": "level of expressed mRNA in the presence of chemical substance / level in the absence of chemical substance", "setting": "yeast gene YNL253W", "result": 1.3}, {"measurement": "level of expressed mRNA in the presence of chemical substance / level in the absence of chemical substance", "setting": "yeast gene YNL276C", "result": 1.3}, {"measurement": "The level of expressed mRNA in the presence of chemical substance/The level of expressed mRNA in the absence of chemical substance", "setting": "yeast gene YNL281W", "result": 1.0}, {"measurement": "The level of expressed mRNA in the presence of chemical substance/The level of expressed mRNA in the absence of chemical substance", "setting": "yeast gene YNL305C", "result": 0.9}, {"measurement": "level of expressed mRNA in the presence of chemical substance / level in the absence of chemical substance", "setting": "yeast gene YNR051C", "result": 0.7}, {"measurement": "The level of expressed mRNA in the presence of chemical substance/The level of expressed mRNA in the absence of chemical substance", "setting": "yeast gene YNR068C", "result": 1.2}, {"measurement": "level of expressed mRNA in the presence of chemical substance / level in the absence of chemical substance", "setting": "yeast gene YOL026C", "result": 1.2}, {"measurement": "The level of expressed mRNA in the presence of chemical substance/The level of expressed mRNA in the absence of chemical substance", "setting": "yeast gene YOL032W", "result": 1.3}, {"measurement": "The level of expressed mRNA in the presence of chemical substance/The level of expressed mRNA in the absence of chemical substance", "setting": "yeast gene YOL036W", "result": 0.8}, {"measurement": "The level of expressed mRNA in the presence of chemical substance/The level of expressed mRNA in the absence of chemical substance", "setting": "yeast gene YOL047C", "result": 1.4}, {"measurement": "The level of expressed mRNA in the presence of chemical substance/The level of expressed mRNA in the absence of chemical substance", "setting": "yeast gene YOL071W", "result": 1.3}, {"measurement": "The level of expressed mRNA in the presence of chemical substance/The level of expressed mRNA in the absence of chemical substance", "setting": "yeast gene YOL082W", "result": 1.0}, {"measurement": "The level of expressed mRNA in the presence of chemical substance/The level of expressed mRNA in the absence of chemical substance", "setting": "yeast gene YOL083W", "result": 1.1}, {"measurement": "The level of expressed mRNA in the presence of chemical substance/The level of expressed mRNA in the absence of chemical substance", "setting": "yeast gene YOL117W", "result": 1.0}, {"measurement": "The level of expressed mRNA in the presence of chemical substance/The level of expressed mRNA in the absence of chemical substance", "setting": "yeast gene YOL131W", "result": 1.0}, {"measurement": "The level of expressed mRNA in the presence of chemical substance/The level of expressed mRNA in the absence of chemical substance", "setting": "yeast gene YOL150C", "result": 4.1}, {"measurement": "The level of expressed mRNA in the presence of chemical substance/The level of expressed mRNA in the absence of chemical substance", "setting": "yeast gene YOL162W", "result": 2.0}, {"measurement": "The level of expressed mRNA in the presence of chemical substance/The level of expressed mRNA in the absence of chemical substance", "setting": "yeast gene YOR019W", "result": 2.9}, {"measurement": "level of expressed mRNA in the presence of chemical substance / level in the absence of chemical substance", "setting": "yeast gene YOR022C", "result": 1.3}, {"measurement": "level of expressed mRNA in the presence of chemical substance / level in the absence of chemical substance", "setting": "yeast gene YOR087W", "result": 0.7}, {"measurement": "level of expressed mRNA in the presence of chemical substance / level in the absence of chemical substance", "setting": "yeast gene YOR138C", "result": 0.8}, {"measurement": "The level of expressed mRNA in the presence of chemical substance/The level of expressed mRNA in the absence of chemical substance", "setting": "yeast gene YOR197W", "result": 0.8}, {"measurement": "level of expressed mRNA in the presence of chemical substance / level in the absence of chemical substance", "setting": "yeast gene YOR253W", "result": 0.9}, {"measurement": "level of expressed mRNA in the presence of chemical substance / level in the absence of chemical substance", "setting": "yeast gene YOR267C", "result": 0.8}, {"measurement": "level of expressed mRNA in the presence of chemical substance / level in the absence of chemical substance", "setting": "yeast gene YOR325W", "result": 1.0}, {"measurement": "level of expressed mRNA in the presence of chemical substance / level in the absence of chemical substance", "setting": "yeast gene YPL005W", "result": 1.0}, {"measurement": "The level of expressed mRNA in the presence of chemical substance/The level of expressed mRNA in the absence of chemical substance", "setting": "yeast gene YPL087W", "result": 1.0}, {"measurement": "level of expressed mRNA in the presence of chemical substance / level in the absence of chemical substance", "setting": "yeast gene YPL150W", "result": 0.7}, {"measurement": "level of expressed mRNA in the presence of chemical substance / level in the absence of chemical substance", "setting": "yeast gene YPL152W", "result": 1.4}, {"measurement": "level of expressed mRNA in the presence of chemical substance / level in the absence of chemical substance", "setting": "yeast gene YPL168W", "result": 1.1}, {"measurement": "level of expressed mRNA in the presence of chemical substance / level in the absence of chemical substance", "setting": "yeast gene YPL180W", "result": 0.9}, {"measurement": "level of expressed mRNA in the presence of chemical substance / level in the absence of chemical substance", "setting": "yeast gene YPL188W", "result": 1.3}, {"measurement": "The level of expressed mRNA in the presence of chemical substance/The level of expressed mRNA in the absence of chemical substance", "setting": "yeast gene YPL196W", "result": 1.3}, {"measurement": "The level of expressed mRNA in the presence of chemical substance/The level of expressed mRNA in the absence of chemical substance", "setting": "yeast gene YPL206C", "result": 1.0}, {"measurement": "level of expressed mRNA in the presence of chemical substance / level in the absence of chemical substance", "setting": "yeast gene YPL221W", "result": 0.9}, {"measurement": "The level of expressed mRNA in the presence of chemical substance/The level of expressed mRNA in the absence of chemical substance", "setting": "yeast gene YPL222W", "result": 0.9}, {"measurement": "level of expressed mRNA in the presence of chemical substance / level in the absence of chemical substance", "setting": "yeast gene YPL225W", "result": 1.3}, {"measurement": "The level of expressed mRNA in the presence of chemical substance/The level of expressed mRNA in the absence of chemical substance", "setting": "yeast gene YPR023C", "result": 1.2}, {"measurement": "level of expressed mRNA in the presence of chemical substance / level in the absence of chemical substance", "setting": "yeast gene YPR049C", "result": 1.0}, {"measurement": "level of expressed mRNA in the presence of chemical substance / level in the absence of chemical substance", "setting": "yeast gene YPR146C", "result": 0.8}, {"measurement": "level of expressed mRNA in the presence of chemical substance / level in the absence of chemical substance", "setting": "yeast gene YPR148C", "result": 1.1}, {"measurement": "The level of expressed mRNA in the presence of chemical substance/The level of expressed mRNA in the absence of chemical substance", "setting": "yeast gene YPR151C", "result": 2.3}, {"measurement": "level of expressed mRNA in the presence of chemical substance / level in the absence of chemical substance", "setting": "yeast gene YPR172W", "result": 1.1}]}
